Assay: gradient 5% acetonitrile 3 min, to 50% in 2 min, to 85% in 15 min, held 3 min, 100 µL/min
Conditions: column: Zorbax Extend-C18 2.1 x 50 mm; eluents: water / acetonitrile, 0.1% formic acid
Outline: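 The system's dead and dwell volumes were 40 μL and 900 μL, with a Zorbax Extend-C18 column (2.1 × 50 mm, 1.8 μm) run at 100 μL/min in water and acetonitrile containing 0.1% formic acid each. Pure standards were analyzed in mixtures of ~100 molecules by HPLC–quadrupole time-of-flight mass spectrometry in positive and negative ionization mode. Retention time was assigned from computationally picked, manually inspected adduct peaks.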

Compound | RP-LC retention time
COC(=O)c1ccc(Cl)cc1NC(=O)c1cc2ccccc2o1 | 1280 s
COc1ccccc1NC(=O)c1cc2ccccc2cc1O | 1060 s
Cc1csc(-c2cc(S(=O)(=O)Nc3ccc(Cl)cc3C)c(C)s2)n1 | 1140 s
c1ccc(-c2noc(-c3ccccc3OC3CCN(Cc4nccs4)C3)n2)cc1 (stereo unspecified) | 750 s
CCCn1cc(CCNS(=O)(=O)c2ccc(C(C)C)cc2)c2cccnc21 | 1030 s
Cc1sc(NC(=O)Cc2ccccc2)nc1-c1ccc2c(c1)N(C)C(=O)CO2 | 926 s
O=C(NCc1ccccc1)C1=Cc2ccccc2OC=C1 | 933 s
Cc1ccc2oc(=O)n(Cc3noc(C(=O)NCc4ccc(Br)cc4)n3)c2c1 | 952 s
COc1cc(CN2C[C@@H](CO)[C@H](N(C)C)C2)ccc1OC(C)C | 554 s
COc1ccc(NC(=O)Cn2cnc3c(sc4nc(-c5ccccc5)ccc43)c2=O)c(OC)c1 | 991 s
CCCN(CCC)S(=O)(=O)c1cccc(-c2cn3ccc(C)cc3n2)c1 | 744 s
COc1ccc(-c2cn3cccnc3n2)cc1NS(=O)(=O)c1ccc(C)cc1 | 690 s
O=C(Nc1ccc2c(c1)OCCO2)N1C[C@@H]2CN(S(=O)(=O)c3ccccc3)C[C@H](C1)O2 | 728 s
CC(C)CCNS(=O)(=O)c1ccc(-c2cc(C(F)(F)F)on2)o1 | 1090 s
C=CCN1C(=O)COc2ccc(-c3nc(NC(=O)c4cc(OC)cc(OC)c4)sc3C)cc21 | 1090 s
Cc1ccc(CNC(=O)C(C)n2nc(C)c3nn(-c4ccccc4)c(-n4cccc4)c3c2=O)o1 (stereo unspecified) | 987 s

Compound | RP-LC retention time
CC(C)c1noc(-c2cc(=O)n(CC(=O)Nc3ccc(N(C)C)cc3)c3ccccc23)n1 | 737 s
O=C(Cn1cccc(-c2nc(-c3ccc(Br)cc3)no2)c1=O)NCc1ccccc1 | 939 s
CCOc1ccc(NC(=O)N(C)CCc2noc(COc3ccccc3)n2)cc1 | 890 s
CCCN1CCn2cc(S(=O)(=O)Nc3ccccc3C)cc2C1=O | 746 s
COc1ccc(NC(=O)N2CCc3cn(CC(C)C)c4cccc(c34)C2)cc1 | 1030 s
CCc1cccc(NC(=O)Cc2csc3nc(-c4ccc(C)c(C)c4)cn23)c1 | 962 s
CCC(CO)Nc1nc(NCc2ccccc2)c2ncn(C(C)C)c2n1 (stereo unspecified) | 630 s
O=C(Cc1ccccc1)NC(c1ccccc1)c1ccc2cccnc2c1O (stereo unspecified) | 822 s
COCCN1C(=O)c2cccn2CC1CNS(=O)(=O)c1ccc2c(c1)C(C)(C)C(=O)N2 (stereo unspecified) | 652 s
COCCNS(=O)(=O)c1ccc(Cl)c(-c2nnc(-c3ccccc3)o2)c1 | 870 s
CCc1nc(-c2nnn(-c3ccc(C)cc3)c2C)no1 | 945 s
Cc1cc(N2CCC(NC(=O)Nc3ccccc3C(F)(F)F)C2=O)ccc1F (stereo unspecified) | 915 s
CN(C)c1ccc(-c2nc3ccccc3s2)cc1 | 1130 s
Cc1ccccc1-c1nc2cnccn2c1NCCC(=O)NCc1ccc(F)c(Cl)c1 | 714 s
Cc1ccc(-n2c(=O)c3c(cc(C)n3C)n(CC(=O)Nc3cccc(Cl)c3C)c2=O)cc1 | 918 s

The next lines start with the values.

RP-LC retention time | Compound
899 s | Cc1ccc(C)c(N(C)C(=O)C2CCCN(c3ncnc4c3nc3n4CCCCC3)C2)c1 (stereo unspecified)
974 s | Cc1noc(C)c1CCNC(=O)C1CCCN(c2nc3ccccc3n(Cc3ccccc3)c2=O)C1 (stereo unspecified)
614 s | Cc1ccc(C(=O)NCc2ccc3c(c2)ncn3C(C)C)s1
616 s | O=C(NCc1ccc(N2CCCCC2)nc1)C1CCCCC1
1120 s | O=C(Cc1ccsc1)N1CCc2cc(-c3csc(C4CC4)n3)ccc21
847 s | N#Cc1cccc(C(=O)Nc2cnn(-c3ncc(N4CCCCC4)cn3)c2)c1
649 s | O=C(NCc1cccnc1)C1c2ccccc2C(=O)N(Cc2ccccc2)C12CCCC2 (stereo unspecified)
767 s | CCC(=O)N1CCc2cc(C)c(S(=O)(=O)NC3CC3)cc21
666 s | CCN(CC)C(=O)c1ccc2c(c1)N(CC(=O)N1CCN(c3ncccn3)CC1)C(=O)CO2
739 s | O=C(O)CCC1CCN(S(=O)(=O)c2ccccc2)CC1
627 s | CNC(=O)C1CCCN(c2nc3ncn(CC(=O)Nc4ccc5c(c4)OCCO5)c(=O)c3s2)C1 (stereo unspecified)
858 s | O=C(COc1ccc(Cl)cc1Cl)NCC1CCN(C(=O)c2ccccc2F)CC1
801 s | CCc1nnc(-c2ccc3ccn(CC(=O)NCc4ccc(F)cc4)c3c2)o1
905 s | CCCNC(=O)c1ccc(-c2ccnc(N3CCCCC3)n2)cc1
835 s | CN(CC1CCOCC1)S(=O)(=O)Cc1cccc(Cl)c1
692 s | O=S(=O)(c1ccc(F)cc1)N1CCC2(CC1)NCCN=C2NCc1ccccc1F
761 s | CCC(=O)N1CCc2cc(C(=O)NCc3ccc4c(c3)OCO4)ccc21
863 s | O=C(NCc1ccccc1Cl)C1CCN(C(=O)c2sccc2-n2cccc2)CC1

RP-LC retention time | Compound
688 s | CCn1nccc1C(=O)NC1CCN(c2cc(-c3ccccc3)[nH]n2)CC1
972 s | O=C(CN1C(=O)C(C(=O)N2CCCC2)Sc2ccccc21)NCc1cccc(Br)c1 (stereo unspecified)
595 s | O=C(Cn1ccc2c(SCc3ccc(F)cc3)nccc21)N1CCN(c2ccccn2)CC1
725 s | CCC(=O)Nc1ccc2c(c1)N(C(=O)c1ccco1)CCC2
977 s | CCOC(=O)C1CCN(c2nnc(-c3nnc(CC)o3)c3ccccc23)CC1
810 s | Cc1cccc(S(=O)(=O)N2CCc3c(c(CN4CCCC4)nn3C)C2)c1
611 s | O=C(c1ccncc1)N1CCC2(CC1)N=C(c1ccccc1)NO2
731 s | Cc1nn(C2CCS(=O)(=O)C2)c(C)c1N1CCN(C(=O)C(C)Oc2ccccc2)CC1 (stereo unspecified)
711 s | Cc1cccc([N+](=O)[O-])c1NC(=O)C1CCCN(c2ccc(-n3cccn3)nn2)C1 (stereo unspecified)
604 s | CC(NC(=O)c1ccccc1)C(=O)N1CCN(c2cc(C(C)C)n3cnnc3n2)CC1 (stereo unspecified)
814 s | COCCN1C(=O)c2ccc(-c3ccco3)n2CC1(C)C(=O)NCc1ccccc1 (stereo unspecified)
580 s | COCCN1CC2CN(C(=O)Nc3ccc4c(c3)OCCO4)CC(C1)O2
597 s | CCOC(=O)C1=C(CN2CCCC2)NC(=O)NC1c1ccc(OC)cc1 (stereo unspecified)
636 s | Cc1nc(-c2csc(S(=O)(=O)N3CCC(C(=O)NCc4ccccn4)CC3)c2)no1
601 s | Cc1ccc(CNC(=O)C2=CCN(Cc3ccccc3)CC2)o1
1130 s | O=C(NC1CCCC1)N1CC(Oc2cccc(-c3nc(-c4ccccc4)no3)c2)C1
626 s | c1csc(-c2nc(-c3ccc4c(c3)ncn4CCN3CCCCC3)no2)c1

— the METLIN SMRT retention time set (Domingo-Almenara et al. 2019)
